Measurements from patent US12077503B2, “Substituted cyclic amides and their use as herbicides” (FMC CORPORATION, priority 2015, dated 2024).

Tests used:
Assay type in all cases: in vivo
[1] = system: ducksalad (Heteranthera limosa); assay: Test B flooded paddy test; settings: 250 g ai/ha, Flood, 0 to 100 scale where 0 is no effect and 100 is complete control
How it was run: (§1)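 Compound goes directly into floodwater once pots are flooded 3 cm above soil, targeting plants at two leaves; the water depth is then held for the test duration. Plants sit 13–15 d in a greenhouse and are rated visually, 100 denoting complete control.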

rice (Oryra sativa) = assay: Test B flooded paddy test; settings: 250 g ai/ha, Flood, 0 to 100 scale where 0 is no effect and 100 is complete control
How it was run: as §1

[2] = system: sedge, umbrella (small-flower umbrella sedge, Cyperus difformis); assay: Test B flooded paddy test; settings: 250 g ai/ha, Flood, 0 to 100 scale where 0 is no effect and 100 is complete control
How it was run: as §1

[3] = system: barnyardgrass (Echinochloa crus-galli); assay: Test B flooded paddy test; settings: 250 g ai/ha, Flood, 0 to 100 scale where 0 is no effect and 100 is complete control
How it was run: as §1

Kochia (Kochia scoparia) [4] = assay: Test A preemergence
How it was run: (§2)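 Preemergence soil spray on seeded pots or post-emergence spray on 1–2 leaf plants, in loam–sand blend. Greenhouse ~10 d. Visual rating 0–100 against untreated plants.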

[5] = system: giant foxtail (Setaria faberii); assay: Test A preemergence
How it was run: as §2

[6] = system: ragweed (common ragweed, Ambrosia elatior); assay: Test A preemergence
How it was run: as §2

[7] = system: ryegrass, Italian (Italian ryegrass, Lolium multiflorum); assay: Test A preemergence
How it was run: as §2

[8] = system: barnyardgrass (Echinochloa crus-galli); assay: Test A preemergence
How it was run: as §2

[9] = system: pigweed (Amaranthus retroflexus); assay: Test A preemergence
Kochia (Kochia scoparia) [10] = assay: Test A postemergence
How it was run: as §2

[11] = system: giant foxtail (Setaria faberii); assay: Test A postemergence
How it was run: as §2

[12] = system: wheat (Triticum aestivum); assay: Test A postemergence
How it was run: as §2

[13] = system: ragweed (common ragweed, Ambrosia elatior); assay: Test A postemergence
How it was run: as §2

corn (Zea mays) = assay: Test A postemergence
How it was run: as §2

[14] = system: ryegrass, Italian (Italian ryegrass, Lolium multiflorum); assay: Test A postemergence
How it was run: as §2

[15] = system: barnyardgrass (Echinochloa crus-galli); assay: Test A postemergence
How it was run: as §2

[16] = system: pigweed (Amaranthus retroflexus); assay: Test A postemergence
How it was run: as §2

[17] = system: Galium (catchweed bedstraw, Galium aparine); assay: Test A postemergence
How it was run: as §2

[18] = system: blackgrass (Alopecurus myosuroides); assay: Test A postemergence
How it was run: as §2

[19] = 31 g ai/ha, Preemergence, 0 to 100 scale where 0 is no effect and 100 is complete control
[20] = 125 g ai/ha, preemergence, 0 to 100 scale where 0 is no effect and 100 is complete control, approx. 10 d
[21] = 125 g ai/ha, postemergence, visual injury vs untreated controls after approx. 10 d, 0 = no effect, 100 = complete control
[22] = Postemergence, 31 g ai/ha, visual injury after approx. 10 d, 0 to 100 scale, 0 no effect, 100 complete control
[23] = 125 g ai/ha, Preemergence, visual injury after approximately 10 d, 0 to 100 scale where 0 is no effect and 100 is complete control
[24] = 500 g ai/ha, preemergence, 0 to 100 scale, 0 = no effect, 100 = complete control
[25] = 125 g ai/ha, preemergence, visual rating after approx. 10 d, 0 to 100 scale where 0 is no effect and 100 is complete control
[26] = 125 g ai/ha, postemergence, visual injury after approximately 10 d, 0 to 100 scale (0 no effect, 100 complete control)
[27] = 500 g ai/ha, postemergence, visual injury, 0 to 100 scale (0 no effect, 100 complete control), approx. 10 d
[28] = 125 g ai/ha, postemergence, visual rating after approx. 10 d, 0 to 100 scale (0 no effect, 100 complete control)

CN1C[C@@H](c2ccc([N+](=O)[O-])cc2)[C@H](C(=O)Nc2cccc(F)c2F)C1=O [Compound 1165]
Ducksalad plant response rating [1]: 90 | Rice plant response rating (rice (Oryra sativa)): 45 | Sedge, Umbrella plant response rating [2]: 0 | Barnyardgrass plant response rating [3]: 95 | Kochia plant response rating (Kochia (Kochia scoparia) [4]; [19]): 0 | Kochia plant response rating (Kochia (Kochia scoparia) [4]; [20]): 70 | Foxtail, Giant plant response rating [5, 19]: 70 | Foxtail, Giant plant response rating [5, 20]: 90 | Ragweed plant response rating [6, 19]: 0 | Ragweed plant response rating [6, 20]: 30 | Ryegrass, Italian plant response rating [7, 19]: 0 | Ryegrass, Italian plant response rating [7, 20]: 0 | Barnyardgrass plant response rating [8, 19]: 70 | Barnyardgrass plant response rating [8, 20]: 90 | Pigweed plant response rating [9, 19]: 40 | Pigweed plant response rating [9, 20]: 50 | Kochia plant response rating (0 to 100 scale) (Kochia (Kochia scoparia) [10]; [21]): 30 | Plant response rating, Kochia (Kochia (Kochia scoparia) [10]; [22]): 30 | Foxtail, Giant plant response rating (0 to 100 scale) [11, 21]: 70 | Plant response rating, Foxtail, Giant [11, 22]: 70 | Wheat plant response rating (0 to 100 scale) [12, 21]: 30 | Plant response rating, Wheat [12, 22]: 0 | Ragweed plant response rating (0 to 100 scale) [13, 21]: 0 | Plant response rating, Ragweed [13, 22]: 0 | Corn plant response rating (0 to 100 scale) (corn (Zea mays); [21]): 30 | Plant response rating, Corn (corn (Zea mays); [22]): 0 | Ryegrass, Italian plant response rating (0 to 100 scale) [14, 21]: 20 | Plant response rating, Ryegrass, Italian [14, 22]: 0 | Barnyardgrass plant response rating (0 to 100 scale) [15, 21]: 80 | Plant response rating, Barnyardgrass [15, 22]: 40 | Pigweed plant response rating (0 to 100 scale) [16, 21]: 30 | Plant response rating, Pigweed [16, 22]: 10 | Galium plant response rating (0 to 100 scale) [17, 21]: 60 | Plant response rating, Galium [17, 22]: 20 | Blackgrass plant response rating (0 to 100 scale) [18, 21]: 0 | Plant response rating, Blackgrass [18, 22]: 0

O=C1NCC(c2cccc(Br)c2)C1C(=O)Nc1ccccc1F (racemic) [Compound 686]
Plant response rating, Ducksalad ([1]; 13 to 15 d): 90 | Plant response rating, Rice (rice (Oryra sativa); 13 to 15 d): 0 | Plant response rating, Sedge, Umbrella ([2]; 13 to 15 d): 0 | Plant response rating, Barnyardgrass ([3]; 13 to 15 d): 35 | Plant response rating, Kochia (Kochia (Kochia scoparia) [4]; [23]): 0 | Plant response rating, Kochia (Kochia (Kochia scoparia) [4]; [24]): 40 | Plant response rating, Foxtail, Giant [5, 23]: 90 | Plant response rating, Foxtail, Giant [5, 24]: 90 | Plant response rating, Ragweed [6, 25]: 0 | Plant response rating, Ragweed [6, 24]: 0 | Plant response rating, Ryegrass, Italian [7, 25]: 0 | Plant response rating, Ryegrass, Italian [7, 24]: 20 | Plant response rating, Barnyardgrass [8, 23]: 90 | Plant response rating, Barnyardgrass [8, 24]: 90 | Plant response rating, Pigweed [9, 25]: 0 | Plant response rating, Pigweed [9, 24]: 20 | Plant response rating, Kochia (Kochia (Kochia scoparia) [10]; [26]): 0 | Plant response rating, Kochia (Kochia (Kochia scoparia) [10]; [27]): 30 | Plant response rating, Foxtail, Giant [11, 26]: 80 | Plant response rating, Foxtail, Giant [11, 27]: 90 | Plant response rating, Wheat [12, 26]: 0 | Plant response rating, Wheat [12, 27]: 30 | Plant response rating, Ragweed [13, 26]: 20 | Plant response rating, Ragweed [13, 27]: 20 | Plant response rating, Corn (corn (Zea mays); [26]): 0 | Plant response rating, Corn (corn (Zea mays); [27]): 50 | Plant response rating, Ryegrass, Italian [14, 26]: 20 | Plant response rating, Ryegrass, Italian [14, 27]: 40 | Plant response rating, Barnyardgrass [15, 28]: 90 | Plant response rating, Barnyardgrass [15, 27]: 90 | Plant response rating, Pigweed [16, 26]: 0 | Plant response rating, Pigweed [16, 27]: 20 | Plant response rating, Galium [17, 26]: 0 | Plant response rating, Galium [17, 27]: 20 | Plant response rating, Blackgrass [18, 28]: 20 | Plant response rating, Blackgrass [18, 27]: 40
